Results as given in patent US9284325B2, “Spectinamides as anti-tuberculosis agents” (UNIVERSITY OF TENNESSEE RESEARCH FOUNDATION, priority 2009, dated 2016).
Where a name gives a salt, the structure may show the parent alone.

System: M. tuberculosis drug-resistant strains and mutants
Assay type: cell-based, Mycobacterium tuberculosis

Q: Which results are given for `CN[C@@H]1[C@H](O)[C@H](NC)C2O[C@]3(O)C(OC2[C@H]1O)O[C@H](C)C[C@H]3NC(=O)Cc1ccccn1` (stereo partly drawn) [Compound 1329, 3′-Dihydro-3′-deoxy-4(R)-(pyridin-2yl)acetylamino spectinomycin Dihydrochloride]?
A: cross resistance with first-line TB drugs isoniazid, rifampicin and ethambutol: no cross resistance; susceptibility of spontaneous streptomycin mutants incl. ATCC 35820: highly susceptible; Activity (MIC) of 1329 compared to streptomycin (Dihydrochloride): >200
